Results on nine cell lines are retold here after the supplement of paper PMC10307832.

Holding throughout (test): relative viability (nuclei count vs DMSO), 5 days (fraction); higher = more cells survive
Compound in the assay “Dactolisib + Phenformin”: Cn1c(=O)n(-c2ccc(C(C)(C)C#N)cc2)c2c3cc(-c4cnc5ccccc5c4)ccc3ncc21 [Dactolisib] + N=C(N)NC(=N)NCCc1ccccc1 [Phenformin] (partner 250 µM)
An outline of the steps:
(§1)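 Dosing by pin tool came one day after lung cancer cell lines were seeded in 1536-well plates, using either one drug or a fixed anchor-drug dose plus five library-drug doses (not always all listed) in √10 steps. After 5 days, nuclei were counted on 4× images. Relative viability is treated-well nuclei count divided by vehicle-well nuclei count, and values are medians of duplicate plates.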

Compound in the assay “Dactolisib + Alpelisib”: Cn1c(=O)n(-c2ccc(C(C)(C)C#N)cc2)c2c3cc(-c4cnc5ccccc5c4)ccc3ncc21 [Dactolisib] + Cc1nc(NC(=O)N2CCC[C@H]2C(N)=O)sc1-c1ccnc(C(C)(C)C(F)(F)F)c1 [Alpelisib] (partner 2 µM)
In short, it runs like this:
as §1

Compound in the assay “Dactolisib + Tozasertib”: Cn1c(=O)n(-c2ccc(C(C)(C)C#N)cc2)c2c3cc(-c4cnc5ccccc5c4)ccc3ncc21 [Dactolisib] + Cc1cc(Nc2cc(N3CCN(C)CC3)nc(Sc3ccc(NC(=O)C4CC4)cc3)n2)n[nH]1 [Tozasertib] (partner 0.1 µM)
In short, it runs like this: as §1

Compound in the assay “Dactolisib + Palbociclib”: Cn1c(=O)n(-c2ccc(C(C)(C)C#N)cc2)c2c3cc(-c4cnc5ccccc5c4)ccc3ncc21 [Dactolisib] + CC(=O)c1c(C)c2cnc(Nc3ccc(N4CCNCC4)cn3)nc2n(C2CCCC2)c1=O [Palbociclib] (partner 0.5 µM)
An outline of the steps:
as §1

In the case of NCI-H596, the relative viability was 0.738 with Dactolisib + Phenformin (first compound 0.002 µM); 0.767 in the assay with Dactolisib + Phenformin (first compound 0.006325 µM); 0.627 with Dactolisib + Phenformin (first compound 0.02 µM); 0.468 with Dactolisib + Phenformin (first compound 0.06325 µM); 0.372 with Dactolisib + Phenformin (first compound 0.2 µM); 0.461 with Dactolisib + Alpelisib (first compound 0.002 µM). For the same cell line, the relative viability is 0.474 with Dactolisib + Alpelisib (first compound 0.006325 µM); 0.386 with Dactolisib + Alpelisib (first compound 0.02 µM); 0.322 in the assay with Dactolisib + Alpelisib (first compound 0.06325 µM); 0.259 with Dactolisib + Alpelisib (first compound 0.2 µM); 0.942 in the assay with Dactolisib + Tozasertib (first compound 0.002 µM); 0.751 with Dactolisib + Tozasertib (first compound 0.006325 µM). For the same cell line, the relative viability in the assay with Dactolisib + Tozasertib (first compound 0.02 µM) turned out to be 0.632; with Dactolisib + Tozasertib (first compound 0.06325 µM), 0.35; in the assay with Dactolisib + Tozasertib (first compound 0.2 µM), 0.32.

Take A-427: the relative viability in the assay with Dactolisib + Phenformin (first compound 0.002 µM) amounted to 0.366; with Dactolisib + Phenformin (first compound 0.006325 µM), 0.335; with Dactolisib + Phenformin (first compound 0.02 µM), 0.348; with Dactolisib + Phenformin (first compound 0.06325 µM) it was 0.263; in the assay with Dactolisib + Phenformin (first compound 0.2 µM) it was 0.244; in the assay with Dactolisib + Alpelisib (first compound 0.002 µM), 1.16. The relative viability turned out to be 1.01 with Dactolisib + Alpelisib (first compound 0.006325 µM); 1.03 with Dactolisib + Alpelisib (first compound 0.02 µM); 0.733 with Dactolisib + Alpelisib (first compound 0.06325 µM); 0.578 in the assay with Dactolisib + Alpelisib (first compound 0.2 µM); 0.547 in the assay with Dactolisib + Palbociclib (first compound 0.002 µM); 0.529 in the assay with Dactolisib + Palbociclib (first compound 0.006325 µM). The relative viability was 0.498 with Dactolisib + Palbociclib (first compound 0.02 µM); 0.428 with Dactolisib + Palbociclib (first compound 0.06325 µM); 0.401 with Dactolisib + Palbociclib (first compound 0.2 µM); 0.201 with Dactolisib + Tozasertib (first compound 0.002 µM); 0.192 with Dactolisib + Tozasertib (first compound 0.006325 µM); 0.253 with Dactolisib + Tozasertib (first compound 0.02 µM). For the same cell line, the relative viability with Dactolisib + Tozasertib (first compound 0.06325 µM) is 0.208; with Dactolisib + Tozasertib (first compound 0.2 µM), 0.187.

With EMC-BAC-2, the relative viability with Dactolisib + Phenformin (first compound 0.002 µM) is 0.51; in the assay with Dactolisib + Phenformin (first compound 0.006325 µM), 0.529; with Dactolisib + Phenformin (first compound 0.02 µM), 0.519; with Dactolisib + Phenformin (first compound 0.06325 µM) it was 0.336; in the assay with Dactolisib + Phenformin (first compound 0.2 µM), 0.251; in the assay with Dactolisib + Alpelisib (first compound 0.002 µM), 0.802. The relative viability in the assay with Dactolisib + Alpelisib (first compound 0.006325 µM) worked out at 0.708; in the assay with Dactolisib + Alpelisib (first compound 0.02 µM) it was 0.69; in the assay with Dactolisib + Alpelisib (first compound 0.06325 µM), 0.542; with Dactolisib + Alpelisib (first compound 0.2 µM), 0.374; with Dactolisib + Palbociclib (first compound 0.002 µM), 0.563; in the assay with Dactolisib + Palbociclib (first compound 0.006325 µM), 0.486. Moreover, the relative viability in the assay with Dactolisib + Palbociclib (first compound 0.02 µM) stood at 0.461; with Dactolisib + Palbociclib (first compound 0.06325 µM), 0.324; with Dactolisib + Palbociclib (first compound 0.2 µM), 0.29; with Dactolisib + Tozasertib (first compound 0.002 µM), 0.266; with Dactolisib + Tozasertib (first compound 0.006325 µM), 0.271; with Dactolisib + Tozasertib (first compound 0.02 µM), 0.334. Moreover, the relative viability came to 0.287 with Dactolisib + Tozasertib (first compound 0.06325 µM) and 0.273 with Dactolisib + Tozasertib (first compound 0.2 µM).

Turning to NCI-H441, the relative viability amounted to 1.28 in the assay with Dactolisib + Phenformin (first compound 0.002 µM); 0.737 in the assay with Dactolisib + Phenformin (first compound 0.006325 µM); 0.812 in the assay with Dactolisib + Phenformin (first compound 0.02 µM); 0.337 with Dactolisib + Phenformin (first compound 0.06325 µM); 0.289 with Dactolisib + Phenformin (first compound 0.2 µM); 1.05 with Dactolisib + Alpelisib (first compound 0.002 µM). In addition, the relative viability is 0.74 with Dactolisib + Alpelisib (first compound 0.006325 µM); 0.685 with Dactolisib + Alpelisib (first compound 0.02 µM); 0.429 with Dactolisib + Alpelisib (first compound 0.06325 µM); 0.271 in the assay with Dactolisib + Alpelisib (first compound 0.2 µM); 0.27 with Dactolisib + Palbociclib (first compound 0.002 µM); 0.206 with Dactolisib + Palbociclib (first compound 0.006325 µM). In addition, the relative viability in the assay with Dactolisib + Palbociclib (first compound 0.02 µM) came to 0.194; with Dactolisib + Palbociclib (first compound 0.06325 µM) it was 0.176; in the assay with Dactolisib + Palbociclib (first compound 0.2 µM), 0.133; in the assay with Dactolisib + Tozasertib (first compound 0.002 µM), 0.831; in the assay with Dactolisib + Tozasertib (first compound 0.006325 µM) it was 0.632; in the assay with Dactolisib + Tozasertib (first compound 0.02 µM), 0.522. The relative viability with Dactolisib + Tozasertib (first compound 0.06325 µM) stood at 0.384; with Dactolisib + Tozasertib (first compound 0.2 µM) it was 0.284.

In the case of LCLC-103H, the relative viability stood at 0.369 with Dactolisib + Phenformin (first compound 0.002 µM); 0.321 with Dactolisib + Phenformin (first compound 0.006325 µM); 0.345 with Dactolisib + Phenformin (first compound 0.02 µM); 0.317 with Dactolisib + Phenformin (first compound 0.06325 µM); 0.291 in the assay with Dactolisib + Phenformin (first compound 0.2 µM); 1.01 in the assay with Dactolisib + Alpelisib (first compound 0.002 µM). For the same cell line, the relative viability with Dactolisib + Alpelisib (first compound 0.006325 µM) was found to be 0.943; in the assay with Dactolisib + Alpelisib (first compound 0.02 µM), 0.95; in the assay with Dactolisib + Alpelisib (first compound 0.06325 µM), 0.673; with Dactolisib + Alpelisib (first compound 0.2 µM), 0.539; with Dactolisib + Palbociclib (first compound 0.002 µM), 0.483; in the assay with Dactolisib + Palbociclib (first compound 0.006325 µM), 0.494. The relative viability stood at 0.45 with Dactolisib + Palbociclib (first compound 0.02 µM); 0.414 with Dactolisib + Palbociclib (first compound 0.06325 µM); 0.373 in the assay with Dactolisib + Palbociclib (first compound 0.2 µM); 0.492 in the assay with Dactolisib + Tozasertib (first compound 0.002 µM); 0.481 with Dactolisib + Tozasertib (first compound 0.006325 µM); 0.451 in the assay with Dactolisib + Tozasertib (first compound 0.02 µM). The relative viability came to 0.379 with Dactolisib + Tozasertib (first compound 0.06325 µM) and 0.286 with Dactolisib + Tozasertib (first compound 0.2 µM).

Regarding HCC-827, the relative viability in the assay with Dactolisib + Phenformin (first compound 0.002 µM) was found to be 0.394; with Dactolisib + Phenformin (first compound 0.006325 µM) it was 0.392; with Dactolisib + Phenformin (first compound 0.02 µM), 0.396; in the assay with Dactolisib + Phenformin (first compound 0.06325 µM), 0.382; with Dactolisib + Phenformin (first compound 0.2 µM), 0.393; with Dactolisib + Alpelisib (first compound 0.002 µM), 0.964. Also, the relative viability with Dactolisib + Alpelisib (first compound 0.006325 µM) was 1.01; with Dactolisib + Alpelisib (first compound 0.02 µM) it was 0.943; with Dactolisib + Alpelisib (first compound 0.06325 µM), 0.468; with Dactolisib + Alpelisib (first compound 0.2 µM), 0.359; in the assay with Dactolisib + Palbociclib (first compound 0.002 µM) it was 0.473; with Dactolisib + Palbociclib (first compound 0.006325 µM) it was 0.518. Also, the relative viability with Dactolisib + Palbociclib (first compound 0.02 µM) is 0.47; with Dactolisib + Palbociclib (first compound 0.06325 µM), 0.36; with Dactolisib + Palbociclib (first compound 0.2 µM) it was 0.171; with Dactolisib + Tozasertib (first compound 0.002 µM), 0.419; with Dactolisib + Tozasertib (first compound 0.006325 µM) it was 0.452; with Dactolisib + Tozasertib (first compound 0.02 µM), 0.401. Further, the relative viability with Dactolisib + Tozasertib (first compound 0.06325 µM) worked out at 0.416; with Dactolisib + Tozasertib (first compound 0.2 µM) it was 0.329.

Take NCI-H1355: the relative viability with Dactolisib + Phenformin (first compound 0.002 µM) was found to be 0.497; with Dactolisib + Phenformin (first compound 0.006325 µM), 0.429; in the assay with Dactolisib + Phenformin (first compound 0.02 µM), 0.43; in the assay with Dactolisib + Phenformin (first compound 0.06325 µM) it was 0.373; with Dactolisib + Phenformin (first compound 0.2 µM), 0.316; with Dactolisib + Alpelisib (first compound 0.002 µM), 0.941. Further, the relative viability in the assay with Dactolisib + Alpelisib (first compound 0.006325 µM) came out at 0.794; in the assay with Dactolisib + Alpelisib (first compound 0.02 µM), 0.723; in the assay with Dactolisib + Alpelisib (first compound 0.06325 µM), 0.385; with Dactolisib + Alpelisib (first compound 0.2 µM) it was 0.255; with Dactolisib + Palbociclib (first compound 0.002 µM), 0.406; with Dactolisib + Palbociclib (first compound 0.006325 µM), 0.368. For the same cell line, the relative viability in the assay with Dactolisib + Palbociclib (first compound 0.02 µM) was 0.352; with Dactolisib + Palbociclib (first compound 0.06325 µM) it was 0.255; with Dactolisib + Palbociclib (first compound 0.2 µM), 0.174; with Dactolisib + Tozasertib (first compound 0.002 µM), 0.625; with Dactolisib + Tozasertib (first compound 0.006325 µM), 0.537; in the assay with Dactolisib + Tozasertib (first compound 0.02 µM), 0.447. Also, the relative viability stood at 0.456 in the assay with Dactolisib + Tozasertib (first compound 0.06325 µM) and 0.177 in the assay with Dactolisib + Tozasertib (first compound 0.2 µM).

For the cell line NCI-H1703, the relative viability was found to be 0.205 with Dactolisib + Alpelisib (first compound 0.002 µM); 0.329 in the assay with Dactolisib + Alpelisib (first compound 0.006325 µM); 0.34 with Dactolisib + Alpelisib (first compound 0.02 µM); 0.267 in the assay with Dactolisib + Alpelisib (first compound 0.06325 µM); 0.216 with Dactolisib + Alpelisib (first compound 0.2 µM).

Calu-6: the relative viability with Dactolisib + Alpelisib (first compound 0.002 µM) was determined as 0.99; with Dactolisib + Alpelisib (first compound 0.006325 µM), 0.897; in the assay with Dactolisib + Alpelisib (first compound 0.02 µM), 0.694; with Dactolisib + Alpelisib (first compound 0.06325 µM) it was 0.401; with Dactolisib + Alpelisib (first compound 0.2 µM), 0.338.
